Laboratory results published in PubChem BioAssay (NCI).
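Briefly, cells in 96-well plates were exposed to five compound concentrations for 48 h, and endpoints were estimated by linear interpolation. GI50 is the concentration that inhibits growth by half. TGI: concentration producing complete growth inhibition.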

What was measured:
Experiment in all cases: NCI-60 cell line screen, 48 h
786-0 renal = test system: 786-0 renal
A549 NSCLC = test system: A549 NSCLC
ACHN renal = test system: ACHN renal
BT-549 breast = test system: BT-549 breast
CAKI-1 renal = test system: CAKI-1 renal
CCRF-CEM leukemia = test system: CCRF-CEM leukemia
COLO 205 colon = test system: COLO 205 colon
DU-145 prostate = test system: DU-145 prostate
EKVX NSCLC = test system: EKVX NSCLC
HCC-2998 colon = test system: HCC-2998 colon
HCT-116 colon = test system: HCT-116 colon
HCT-15 colon = test system: HCT-15 colon
HOP-62 NSCLC = test system: HOP-62 NSCLC
HOP-92 NSCLC = test system: HOP-92 NSCLC
HS 578T breast = test system: HS 578T breast
HT29 colon = test system: HT29 colon
IGROV1 ovarian = test system: IGROV1 ovarian
K-562 leukemia = test system: K-562 leukemia
KM12 colon = test system: KM12 colon
LOX IMVI melanoma = test system: LOX IMVI melanoma
M14 melanoma = test system: M14 melanoma
MCF7 breast = test system: MCF7 breast
MDA-MB-231 breast = test system: MDA-MB-231 breast
MDA-MB-435 = test system: MDA-MB-435
MOLT-4 leukemia = test system: MOLT-4 leukemia
NCI-H226 lung = test system: NCI-H226 lung
NCI-H23 lung = test system: NCI-H23 lung
NCI-H460 lung = test system: NCI-H460 lung
NCI-H522 lung = test system: NCI-H522 lung
NCI/ADR-RES ovarian = test system: NCI/ADR-RES ovarian
OVCAR-3 ovarian = test system: OVCAR-3 ovarian
OVCAR-4 ovarian = test system: OVCAR-4 ovarian
OVCAR-5 ovarian = test system: OVCAR-5 ovarian
OVCAR-8 ovarian = test system: OVCAR-8 ovarian
PC-3 prostate = test system: PC-3 prostate
RPMI-8226 leukemia = test system: RPMI-8226 leukemia
RXF 393 renal = test system: RXF 393 renal
SF-268 CNS = test system: SF-268 CNS
SF-295 CNS = test system: SF-295 CNS
SF-539 CNS = test system: SF-539 CNS
SK-MEL-2 melanoma = test system: SK-MEL-2 melanoma
SK-MEL-28 melanoma = test system: SK-MEL-28 melanoma
SK-MEL-5 melanoma = test system: SK-MEL-5 melanoma
SK-OV-3 ovarian = test system: SK-OV-3 ovarian
SN12C renal = test system: SN12C renal
SNB-19 CNS = test system: SNB-19 CNS
SNB-75 CNS = test system: SNB-75 CNS
SW-620 colon = test system: SW-620 colon
T-47D breast = test system: T-47D breast
TK-10 renal = test system: TK-10 renal
U251 CNS = test system: U251 CNS
UACC-257 melanoma = test system: UACC-257 melanoma
UACC-62 melanoma = test system: UACC-62 melanoma
UO-31 renal = test system: UO-31 renal

C=CCC(N[C@H](CO)c1ccccc1)c1cn(C(=O)OCC)c2ccccc12 (some centres not stated)
GI50 (786-0 renal): 15.2 µM
TGI (786-0 renal): 28.9 µM
GI50 (A549 NSCLC): 13.1 µM
TGI (A549 NSCLC): 27.6 µM
GI50 (ACHN renal): 16.1 µM
TGI (ACHN renal): 30.2 µM
GI50 (BT-549 breast): 19.8 µM
TGI (BT-549 breast): 39 µM
GI50 (CAKI-1 renal): 12.4 µM
TGI (CAKI-1 renal): 26.9 µM
GI50 (CCRF-CEM leukemia): 44 µM
TGI (CCRF-CEM leukemia): > 100 µM
GI50 (COLO 205 colon): 19.5 µM
TGI (COLO 205 colon): 65.6 µM
GI50 (DU-145 prostate): 19.3 µM
TGI (DU-145 prostate): 37.3 µM
GI50 (EKVX NSCLC): 17.5 µM
TGI (EKVX NSCLC): 37.3 µM
GI50 (HCC-2998 colon): 15.8 µM
TGI (HCC-2998 colon): 29.6 µM
GI50 (HCT-116 colon): 14.7 µM
TGI (HCT-116 colon): 28 µM
GI50 (HCT-15 colon): 18.6 µM
TGI (HCT-15 colon): 39.4 µM
GI50 (HOP-62 NSCLC): 14.5 µM
TGI (HOP-62 NSCLC): 27.9 µM
GI50 (HOP-92 NSCLC): 18 µM
TGI (HOP-92 NSCLC): 35.7 µM
GI50 (HS 578T breast): 19.4 µM
TGI (HS 578T breast): 46 µM
GI50 (HT29 colon): 31 µM
TGI (HT29 colon): > 100 µM
GI50 (IGROV1 ovarian): 8.46 µM
TGI (IGROV1 ovarian): 26.3 µM
GI50 (K-562 leukemia): 8.51 µM
TGI (K-562 leukemia): 33.2 µM
GI50 (KM12 colon): 16.7 µM
TGI (KM12 colon): 34.8 µM
GI50 (LOX IMVI melanoma): 15.9 µM
TGI (LOX IMVI melanoma): 30.1 µM
GI50 (M14 melanoma): 14.3 µM
TGI (M14 melanoma): 28.2 µM
GI50 (MCF7 breast): 35.2 µM
TGI (MCF7 breast): > 100 µM
GI50 (MDA-MB-231 breast): 15.7 µM
TGI (MDA-MB-231 breast): 31.3 µM
GI50 (MDA-MB-435): 18 µM
TGI (MDA-MB-435): 33.4 µM
GI50 (MOLT-4 leukemia): 17.8 µM
TGI (MOLT-4 leukemia): 41.6 µM
GI50 (NCI-H226 lung): 15.2 µM
TGI (NCI-H226 lung): 31 µM
GI50 (NCI-H23 lung): 15.8 µM
TGI (NCI-H23 lung): 32 µM
GI50 (NCI-H460 lung): 37.3 µM
TGI (NCI-H460 lung): > 100 µM
GI50 (NCI-H522 lung): 15.2 µM
TGI (NCI-H522 lung): 32.1 µM
GI50 (NCI/ADR-RES ovarian): 15.9 µM
TGI (NCI/ADR-RES ovarian): 32.4 µM
GI50 (OVCAR-3 ovarian): 11.6 µM
TGI (OVCAR-3 ovarian): 25 µM
GI50 (OVCAR-4 ovarian): 37.3 µM
TGI (OVCAR-4 ovarian): > 100 µM
GI50 (OVCAR-5 ovarian): 16.3 µM
TGI (OVCAR-5 ovarian): 33.8 µM
GI50 (OVCAR-8 ovarian): 13.4 µM
TGI (OVCAR-8 ovarian): 27.7 µM
GI50 (PC-3 prostate): 23.2 µM
TGI (PC-3 prostate): 69.3 µM
GI50 (RPMI-8226 leukemia): 70.2 µM
TGI (RPMI-8226 leukemia): > 100 µM
GI50 (RXF 393 renal): 0.98 µM
TGI (RXF 393 renal): 21.3 µM
GI50 (SF-268 CNS): 32.1 µM
TGI (SF-268 CNS): 89.9 µM
GI50 (SF-295 CNS): 15.4 µM
TGI (SF-295 CNS): 29.3 µM
GI50 (SF-539 CNS): 18.6 µM
TGI (SF-539 CNS): 35.1 µM
GI50 (SK-MEL-2 melanoma): 18.4 µM
TGI (SK-MEL-2 melanoma): 42 µM
GI50 (SK-MEL-28 melanoma): 28.4 µM
TGI (SK-MEL-28 melanoma): 66.1 µM
GI50 (SK-MEL-5 melanoma): 17.5 µM
TGI (SK-MEL-5 melanoma): 32.8 µM
GI50 (SK-OV-3 ovarian): 31.3 µM
TGI (SK-OV-3 ovarian): > 100 µM
GI50 (SN12C renal): 18.3 µM
TGI (SN12C renal): 32.7 µM
GI50 (SNB-19 CNS): 22.3 µM
TGI (SNB-19 CNS): 66.9 µM
GI50 (SNB-75 CNS): 23 µM
TGI (SNB-75 CNS): 74.3 µM
GI50 (SW-620 colon): 25.6 µM
TGI (SW-620 colon): 52.2 µM
GI50 (T-47D breast): 25.1 µM
TGI (T-47D breast): > 100 µM
GI50 (TK-10 renal): 16.5 µM
TGI (TK-10 renal): 34 µM
GI50 (U251 CNS): 17.8 µM
TGI (U251 CNS): 33.2 µM
TGI (UACC-257 melanoma): 18 µM
GI50 (UACC-62 melanoma): 16.4 µM
TGI (UACC-62 melanoma): 30.6 µM
GI50 (UO-31 renal): 16.1 µM
TGI (UO-31 renal): 32.5 µM
